Test results as given in ChEMBL document CHEMBL1141545, “Synthesis and biological evaluation of 3,5-diaminoindazoles as cyclin-dependent kinase inhibitors” (Bioorg Med Chem Lett, 2008).

Experiments:
[1] = molecular target: Cyclin-dependent kinase 2 (Homo sapiens, UniProt P24941); assay: Inhibition of CDK2
[2] = molecular target: Cyclin-dependent kinase 4 (Homo sapiens, UniProt P11802); assay: Inhibition of CDK4
[3] = Selectivity for CDK2 over CDK1
A549 = assay: Antiproliferative activity against human A549 cells after 48 hrs; assay type: functional, cell-based; details: A549, 48 h
HCT-116 = assay: cells; details: Homo sapiens, HCT-116, 48 h
Description: Antiproliferative activity against human HCT116 cells after 48 hrs

[4] = molecular target: Cyclin-dependent kinase 1 (Homo sapiens, UniProt P06493); assay: Inhibition of CDK1
Cyclin-dependent kinase 1, sequence (P06493 whole entry): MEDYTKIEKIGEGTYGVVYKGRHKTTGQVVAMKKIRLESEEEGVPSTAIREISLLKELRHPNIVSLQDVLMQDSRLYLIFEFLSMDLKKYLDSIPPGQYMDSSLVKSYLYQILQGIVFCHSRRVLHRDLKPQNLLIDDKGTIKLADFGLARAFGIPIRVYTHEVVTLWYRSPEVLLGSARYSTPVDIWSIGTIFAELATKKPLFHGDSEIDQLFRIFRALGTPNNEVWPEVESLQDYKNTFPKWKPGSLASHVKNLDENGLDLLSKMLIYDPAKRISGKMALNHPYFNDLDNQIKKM

EJ = assay: Antiproliferative activity against human EJ cells after 48 hrs; assay type: functional, cell-based
SW-620 = assay: Antiproliferative activity against human SW620 cells after 48 hrs; assay type: functional, cell-based; details: SW-620, 48 h

Cyclin-dependent kinase 4, sequence (P11802 whole entry): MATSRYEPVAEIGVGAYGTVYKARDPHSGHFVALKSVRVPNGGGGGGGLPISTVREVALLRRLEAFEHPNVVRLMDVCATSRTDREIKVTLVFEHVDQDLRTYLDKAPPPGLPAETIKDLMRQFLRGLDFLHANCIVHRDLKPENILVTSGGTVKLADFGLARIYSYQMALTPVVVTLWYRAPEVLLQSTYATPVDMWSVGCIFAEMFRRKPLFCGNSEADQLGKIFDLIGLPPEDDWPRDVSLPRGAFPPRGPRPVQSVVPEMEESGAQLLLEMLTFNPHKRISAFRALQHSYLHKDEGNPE

SMILES | IC50 [1] [µM] | IC50 [2] [µM] | Ratio IC50 [3] | IC50 (A549) [µM] | IC50 (HCT-116) [µM] | IC50 [4] [µM] | IC50 (SW-620) [µM] | IC50 (EJ) [µM]
O=C(Cc1ccc2ccccc2c1)Nc1n[nH]c2ccc(N3CCCS3(=O)=O)cc12 | 0.009 | 1.6 | < 10 | 0.09 | 0.31 | 0.04 | 0.08 | 0.12
CCN(CC)c1ccc(CC(=O)Nc2n[nH]c3ccc(N4CCCS4(=O)=O)cc23)cc1 | 0.04 | > 1 | – | 0.05 | 0.22 | 0.06 | – | 0.055
O=C(Cc1ccc(F)cc1)Nc1n[nH]c2ccc(N3CCCS3(=O)=O)cc12 | 0.02 | 3 | < 10 | – | – | 0.05 | – | –
CN(C)c1ccc(CC(=O)Nc2n[nH]c3ccc(N4CCCS4(=O)=O)cc23)cc1 | 0.01 | 0.21 | < 10 | 0.35 | 0.83 | 0.028 | – | –
Cc1cccc(CC(=O)Nc2n[nH]c3ccc(N4CCCS4(=O)=O)cc23)c1 | 0.01 | 4 | < 10 | – | – | 0.05 | – | –
O=C(Cc1ccc(N2CCCCC2)cc1)Nc1n[nH]c2ccc(N3CCCS3(=O)=O)cc12 | – | 0.75 | – | 1.1 | 1.2 | 0.15 | – | 0.98
CS(=O)(=O)c1ccc(CC(=O)Nc2n[nH]c3ccc(N4CCCS4(=O)=O)cc23)cc1 | 0.022 | 1.4 | – | – | 48 | 0.2 | – | 35
CCCN(CCC)c1ccc2[nH]nc(NC(=O)Cc3ccccc3)c2c1 | 1.8 | – | – | – | – | – | – | –
CCNc1ccc2[nH]nc(NC(=O)Cc3ccccc3)c2c1 | 0.5 | – | – | – | – | – | – | –
O=C(Cc1ccc(Br)cc1)Nc1n[nH]c2ccc(N3CCCS3(=O)=O)cc12 | 0.007 | 2 | < 10 | 3.87 | 1.4 | 0.022 | 2 | 1.57
O=C(Cc1ccccc1Cl)Nc1n[nH]c2ccc(N3CCCS3(=O)=O)cc12 | 0.024 | 0.89 | < 10 | – | – | 0.08 | – | –
CCN(CC)c1ccc2[nH]nc(NC(=O)Cc3ccccc3)c2c1 | 0.2 | – | – | – | – | – | – | –
O=C(Cc1cccc(Cl)c1)Nc1n[nH]c2ccc(N3CCCS3(=O)=O)cc12 | 0.01 | 1.05 | < 10 | – | – | 0.034 | – | –

Now from value to molecule, other results behind:

IC50 [1] [µM] | IC50 [2] [µM] | Ratio IC50 [3] | IC50 (A549) [µM] | IC50 (HCT-116) [µM] | IC50 [4] [µM] | IC50 (SW-620) [µM] | SMILES | IC50 (EJ) [µM]
0.03 | 1.33 | < 10 | 1.4 | 2.5 | 0.06 | – | O=C(Cc1ccc(-c2ccncc2)cc1)Nc1n[nH]c2ccc(N3CCCS3(=O)=O)cc12 | 1.05
0.02 | 3 | < 10 | 1.4 | 2.3 | 0.067 | 0.93 | O=C(Cc1cccc2ccccc12)Nc1n[nH]c2ccc(N3CCCS3(=O)=O)cc12 | 1.3
0.014 | 2.2 | – | 0.055 | 0.18 | 0.042 | 0.04 | O=C(Cc1ccc(-c2ccccc2)cc1)Nc1n[nH]c2ccc(N3CCCS3(=O)=O)cc12 | 0.052
0.009 | 1.75 | – | – | 6.53 | 0.028 | 3.83 | O=C(Cc1ccc(O)cc1)Nc1n[nH]c2ccc(N3CCCS3(=O)=O)cc12 | 5.2
> 100 | – | – | – | – | – | – | CCCCN(CCCC)c1ccc2[nH]nc(NC(=O)Cc3ccccc3)c2c1 | –
0.016 | 2.2 | < 10 | – | – | 0.06 | – | Nc1ccc(CC(=O)Nc2n[nH]c3ccc(N4CCCS4(=O)=O)cc23)cc1 | –
7.1 | – | – | – | – | – | – | O=C(Cc1ccccc1)Nc1n[nH]c2ccc(N3CCCCC3=O)cc12 | –
0.007 | 1.8 | < 10 | 2.57 | 1.77 | 0.04 | 1.56 | Cc1ccc(CC(=O)Nc2n[nH]c3ccc(N4CCCS4(=O)=O)cc23)cc1 | 1.67
0.01 | 0.71 | < 10 | – | – | 0.03 | – | O=C(Cc1cccc(F)c1)Nc1n[nH]c2ccc(N3CCCS3(=O)=O)cc12 | –
2 | – | – | – | – | – | – | O=C(Cc1ccccc1)Nc1n[nH]c2ccc(N3C(=O)CNC3=O)cc12 | –
0.007 | 1.8 | < 10 | – | – | 0.047 | – | O=C(Cc1cccc(Br)c1)Nc1n[nH]c2ccc(N3CCCS3(=O)=O)cc12 | –
0.01 | 2 | – | 1.5 | 1.23 | 0.012 | 0.93 | O=C(Cc1ccc(Cl)cc1)Nc1n[nH]c2ccc(N3CCCS3(=O)=O)cc12 | 0.93
2 | – | – | – | – | – | – | O=C(Cc1ccccc1)Nc1n[nH]c2ccc([N+](=O)[O-])cc12 | –
0.036 | 3.7 | – | – | 4.6 | – | 2.2 | O=C(Cc1ccccc1)Nc1n[nH]c2ccc(N3CCCS3(=O)=O)cc12 | 3.6
0.17 | – | – | – | – | – | – | O=C(Cc1ccccc1)Nc1n[nH]c2ccc(N3CCCC3=O)cc12 | –
0.01 | 1.3 | – | 2.47 | 0.82 | 0.04 | 0.15 | CSc1ccc(CC(=O)Nc2n[nH]c3ccc(N4CCCS4(=O)=O)cc23)cc1 | 0.28
